In data set [1] the target is T1, Enoyl-[acyl-carrier-protein] reductase [NADH] (Mycobacterium tuberculosis) (UniProt P9WGR1).
T1 sequence (whole entry): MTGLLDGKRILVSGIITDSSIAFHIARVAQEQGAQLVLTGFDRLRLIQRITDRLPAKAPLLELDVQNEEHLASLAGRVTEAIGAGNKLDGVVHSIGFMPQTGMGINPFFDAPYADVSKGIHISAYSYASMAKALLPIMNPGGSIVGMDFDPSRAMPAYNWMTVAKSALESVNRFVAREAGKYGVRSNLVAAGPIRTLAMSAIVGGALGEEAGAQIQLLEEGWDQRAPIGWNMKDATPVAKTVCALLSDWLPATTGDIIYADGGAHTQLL
As to the kind of experiment: Inhibition of replicating Mycobacterium tuberculosis H37Rv InhA assessed as cell growth inhibition after 7 days by MABA method. (In general: Resazurin is reduced to fluorescent resorufin, in cell work by metabolically active cells.)

Data set [2] in a line: Cytotoxicity against HEK293 cells assessed as inhibition of cell viability at 25 ug/ml after 48 hrs by MTT assay relative to control. The format is cell-based. The settings on record: human, read-out: INH.

Converted amounts (≈) assume the structure as drawn.

On to `O=C(NNC(=O)[C@H](Cc1ccc(O)cc1)NC(=O)c1ccc(-c2ccc(F)cc2)s1)c1ccc(F)cc1`, for which the MIC in data set [1] was determined as 6.25 µg/mL (≈ 12 µM). Moreover, the cytotoxicity at 48 h, 25 ug/ml in data set [2] was determined as 22.9%. Take `CSc1ccc(-c2ccc(C(=O)NNC(=O)c3ccc(C(C)(C)C)cc3)o2)cc1`: in data set [1], the MIC was 6.25 µg/mL (≈ 15.3 µM). Further, the cytotoxicity at 48 h, 25 ug/ml in data set [2] stood at 10.6%. Turning to `O=C(NNC(=O)[C@H](Cc1ccc(O)cc1)NC(=O)c1ccc(-c2ccc(F)cc2)o1)c1ccc(Br)cc1`, the MIC in data set [1] turned out to be 25 µg/mL (≈ 44.1 µM). For `COc1ccc(C(=O)NNC(=O)c2ccc(-c3ccc(SC)cc3)o2)cc1`, in data set [1], the MIC is 0.78 µg/mL (≈ 2.04 µM). Further, the cytotoxicity at 48 h, 25 ug/ml in data set [2] was found to be 17.4%. Take `COc1ccc(C(=O)NNC(=O)[C@H](Cc2ccc(O)cc2)NC(=O)c2ccc(Br)o2)cc1`: in data set [1], the MIC was greater than 25 µg/mL. `O=C(NNC(=O)[C@H](Cc1ccc(O)cc1)NC(=O)c1ccc(-c2ccccc2)o1)c1ccc(Br)cc1`: the MIC in data set [1] turned out to be 0.78 µg/mL (≈ 1.42 µM). For the same compound, the cytotoxicity at 48 h, 25 ug/ml in data set [2] was 16.3%.

On to `COc1ccc(C(=O)NNC(=O)[C@H](Cc2ccc(O)cc2)NC(=O)c2ccc(-c3ccc(OC)cc3)o2)cc1`, for which, in data set [1], the MIC stood at 0.78 µg/mL (≈ 1.47 µM). The cytotoxicity at 48 h, 25 ug/ml in data set [2] stood at 29.9%. In the case of `COc1ccccc1C(=O)NNC(=O)c1ccc(-c2ccc(SC)cc2)o1`, the MIC in data set [1] came out at 12.5 µg/mL (≈ 32.7 µM). As to `COc1ccc(C(=O)NNC(=O)[C@H](Cc2ccc(O)cc2)NC(=O)c2ccc(-c3ccc(F)cc3)s2)cc1`, the MIC in data set [1] was found to be 1.56 µg/mL (≈ 2.92 µM). In addition, the cytotoxicity at 48 h, 25 ug/ml in data set [2] turned out to be 23.6%. With `O=C(NNc1nc2ccccc2s1)c1ccc(-c2ccccc2)o1`, the MIC in data set [1] amounted to 25 µg/mL (≈ 74.5 µM).

Turning to `CSc1ccc(-c2ccc(C(=O)NNC(=O)c3ccc(O)cc3)o2)cc1`, in data set [1], the MIC is 0.78 µg/mL (≈ 2.12 µM). Besides, the cytotoxicity at 48 h, 25 ug/ml in data set [2] is 17.4%.

`O=C(NNC(=O)[C@H](Cc1ccc(O)cc1)NC(=O)c1ccc(Br)o1)c1ccc(F)cc1`: the MIC in data set [1] was greater than 25 µg/mL. `CSc1ccc(-c2ccc(C(=O)NNC(=O)c3ccccc3F)o2)cc1`: in data set [1], the MIC stood at 6.25 µg/mL (≈ 16.9 µM). Also, in data set [2], the cytotoxicity at 48 h, 25 ug/ml turned out to be 16.9%.

As for `NNC(=O)c1ccncc1`, the MIC in data set [1] stood at 0.1 µg/mL (≈ 0.729 µM).

For `CO[C@H]1/C=C/O[C@@]2(C)Oc3c(C)c(O)c4c(O)c(c(/C=N/N5CCN(C)CC5)c(O)c4c3C2=O)NC(=O)/C(C)=C\C=C\[C@H](C)[C@H](O)[C@@H](C)[C@@H](O)[C@@H](C)[C@H](OC(C)=O)[C@@H]1C`, in data set [1], the MIC came out at 0.2 µg/mL (≈ 0.243 µM).

For `CC(C)(C)c1ccc(C(=O)NNC(=O)[C@H](Cc2ccc(O)cc2)NC(=O)c2ccc(-c3ccccc3)o2)cc1`, the MIC in data set [1] worked out at 0.78 µg/mL (≈ 1.48 µM). The cytotoxicity at 48 h, 25 ug/ml in data set [2] was determined as 18.7%.

With `CC[C@@H](CO)NCCN[C@@H](CC)CO`, the MIC in data set [1] came out at 1.56 µg/mL (≈ 7.64 µM).

As to `CC(C)(C)c1ccc(C(=O)NNC(=O)[C@H](Cc2ccc(O)cc2)NC(=O)c2ccc(Br)o2)cc1`, the MIC in data set [1] came to 3.12 µg/mL (≈ 5.91 µM). In addition, the cytotoxicity at 48 h, 25 ug/ml in data set [2] is 26.6%.

On to `COc1ccc(C(=O)NNC(=O)c2ccc(-c3ccccc3SC)s2)cc1`, for which the MIC in data set [1] was greater than 25 µg/mL.

For the compound `O=C(NNC(=O)[C@H](Cc1ccc(O)cc1)NC(=O)c1ccc(-c2ccc(F)cc2)s1)c1ccc(Cl)cc1`, in data set [1], the MIC is 0.78 µg/mL (≈ 1.45 µM). For the same compound, the cytotoxicity at 48 h, 25 ug/ml in data set [2] came to 17%. Taken in the same sequence, the figures for `CSc1ccc(-c2ccc(C(=O)NNC(=O)c3ccc(F)cc3)o2)cc1` were 0.39 µg/mL (≈ 1.05 µM) and 27%. As for `Cc1ccc(C(=O)NNC(=O)c2ccc(-c3ccccc3S(C)(=O)=O)o2)cc1`, the MIC in data set [1] stood at 3.12 µg/mL (≈ 7.84 µM). Moreover, the cytotoxicity at 48 h, 25 ug/ml in data set [2] came out at 22.9%.

On to `O=C(N[C@@H](Cc1ccc(O)cc1)C(=O)NNC(=O)c1ccccc1F)c1ccc(-c2ccc(F)cc2)s1`, for which the MIC in data set [1] was greater than 25 µg/mL. Consider `O=C(NNC(=O)[C@H](Cc1ccc(O)cc1)NC(=O)c1ccc(Br)o1)c1ccc(Cl)cc1`, for which, in data set [1], the MIC turned out to be 12.5 µg/mL (≈ 24.7 µM). With `CSc1ccc(-c2ccc(C(=O)NNC(=O)c3ccco3)o2)cc1`, the MIC in data set [1] stood at 6.25 µg/mL (≈ 18.3 µM). For the same compound, in data set [2], the cytotoxicity at 48 h, 25 ug/ml amounted to 11.6%. With `Cc1ccc(C(=O)NNC(=O)[C@H](Cc2ccc(O)cc2)NC(=O)c2ccc(-c3ccccc3)o2)cc1`, in data set [1], the MIC came out at 12.5 µg/mL (≈ 25.9 µM).

The values are drawn from ChEMBL document CHEMBL4270581, “Synthesis of carbohydrazides and carboxamides as anti-tubercular agents” (Eur J Med Chem, 2018).
